From the NIST ThermoML archive (doi:10.1021/je050001c)

Conditions: 101.33 kPa, Liquid; for viscosity: Falling or rolling sphere viscometry

CC(=O)OCCC(C)C [3-methylbutyl ethanoate]
Conditions	mass density [kg/m3]	viscosity [mPa·s]
293.15 K	878.24	0.888
298.15 K	876.01	0.827
303.15 K	875.94	0.773
308.15 K	873.1	0.724
313.15 K	870.15	0.678
318.15 K	867.32	0.638
323.15 K	864.31	0.601
328.15 K	860.14	0.567
333.15 K	857.98	0.536
338.15 K	854.05	0.507
343.15 K	851.07	0.481
